Read-outs that look alike come from different tables or passages of the source.
Target: TPK enzyme (Homo sapiens, UniProt Q9H3S4)
Test: TPK enzyme activity test (TDP formation from thiamine and ATP, HPLC detection)
Type: biochemical
Description: The purpose of this example was to test the promoting effect of compounds on TPK enzyme activity and evaluate the in vitro activity of the compounds based on EC50 and Emax.
1.1) The constant-temperature water-bath shaker was pre-heated half an hour in advance at a pre-heating temperature of 37° C.
1.2) The stock solution of the compound to be tested was taken out, allowed to thaw at room temperature, and then diluted to the required concentration.
1.3) The required reagents were placed on ice to thaw.
2.1) For each reaction system, TPK enzyme solution, Tris-HCl buffer solution, and ATP solution were added. The concentration of ATP used was 1-500 mM. The above three solutions were formulated into a homogeneous mixture.
2.2) The mixture of the above three solutions was dispensed into centrifuge tubes. Then, the compound at the required concentration was added to each centrifuge tube. Finally, thiamine solution (1-100 μM) was added. After the addition of the above system was completed, the centrifuge tubes were tightly capped, inserted into a floating board, and placed in the constant-temperature water-bath shaker that had been pre-heated to 37° C. for incubation for 0.5-2.0 hours.
2.3) After the incubation was completed, perchloric acid stop solution was added and mixed well. Samples were taken into 1.5 mL centrifuge tubes and stored at −20° C.
3.1) The samples stored at −20° C. were taken out, thawed at room temperature, and then subjected to derivatization treatment. The samples were placed in centrifuge tubes, a potassium ferricyanide derivatization reagent was added, and finally phosphoric acid stop solution was added to stop the reaction.
3.2) The derivatized samples were placed in sample vials for liquid chromatography analysis, and the contents of TDP/thiamine were detected by high performance liquid chromatography. TKP enzyme activity=TDP (nM)/mg protein/min.
The effects of the compounds of the present invention on TPK enzyme activity at different concentrations were determined according to the above procedures.

[1] = promoting effect on TPK enzyme activity
[2] = promoting effect on TPK enzyme activity, calculated with the effect of DMSO on TPK enzyme activity as 100%, read-out: Emax
[3] = promoting effect on TPK enzyme activity, calculated with the effect of DMSO on TPK enzyme activity as 100%

TPK enzyme, sequence (Q9H3S4 whole entry): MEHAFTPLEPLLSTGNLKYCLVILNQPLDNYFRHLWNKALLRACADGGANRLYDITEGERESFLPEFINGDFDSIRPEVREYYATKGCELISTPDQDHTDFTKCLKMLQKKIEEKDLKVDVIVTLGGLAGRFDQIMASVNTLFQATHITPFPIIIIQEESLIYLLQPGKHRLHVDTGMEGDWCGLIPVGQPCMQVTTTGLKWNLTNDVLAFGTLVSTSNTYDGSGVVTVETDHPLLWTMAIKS

SMILES | Emax | EC50 [1] | Emax [2] | Emax [3]
COc1ccc(/C=C/CC(=O)N2CCN(c3cccc(Cl)c3Cl)CC2)cc1OC [Compound 59, (E)-1-(4-(2,3-dichlorophenyl)piperazin-1-yl)-4-(3,4-dimethoxyphenyl)but-3-en-1-one] | 206% | 1.22 µM |  | 
COc1ccc(/C=C/CN2CCN(c3cccc(Cl)c3Cl)CC2)cc1OC [Compound 60, (E)-1-(2,3-dichlorophenyl)-4-(3-(3,4-dimethoxyphenyl)allyl)piperazine] |  | 1.28 µM | 234% | 
CC(O)COc1ccc(/C=C/CN2CCN(c3cccc(Cl)c3Cl)CC2)cc1O (stereo not drawn) [Compound 62, (E)-5-(3-(4-(2,3-dichlorophenyl)piperazin-1-yl)prop-1-en-1-yl)-2-(2-hydroxypropoxy)phenol] |  | 0.918 µM | 137% | 
COc1ccc(CCNC(=O)N2CCN(c3cccc(Cl)c3Cl)CC2)cc1OC [Compound 64, 4-(2,3-dichlorophenyl)-N-(3,4-dimethoxyphenethyl)piperazine-1-carboxamide] | 184% | 4.71 µM |  | 
COc1ccc(NC(=O)CNC(=O)N2CCN(c3cccc(Cl)c3Cl)CC2)cc1OC [Compound 65, 4-(2,3-dichlorophenyl)-N-(2-((3,4-dimethoxyphenyl)amino)-2-oxoethyl)piperazine-1-carboxamide] | 133% |  |  | 
COc1cccc(NC(=O)CNC(=O)N2CCN(c3cccc(Cl)c3Cl)CC2)c1 [Compound 68, 4-(2,3-dichlorophenyl)-N-(2-((3-methoxyphenyl)amino)-2-oxoethyl)piperazine-1-carboxamide] | 144% |  |  | 
COc1cncc(C#CCN2CCN(c3cccc(Cl)c3Cl)CC2)c1 [Compound 69, 1-(2,3-dichlorophenyl)-4-(3-(5-methoxypyridin-3-yl)prop-2-yn-1-yl)piperazine] | 194% | 2.72 µM |  | 
Oc1cncc(C#CCN2CCN(c3cccc(Cl)c3Cl)CC2)c1 [Compound 70, 5-(3-(4-(2,3-dichlorophenyl)piperazin-1-yl)prop-1-yn-1-yl)pyridin-3-ol] | 147% |  |  | 
COc1cncc(C#CCCN2CCN(c3cccc(Cl)c3Cl)CC2)c1 [Compound 71, 1-(2,3-dichlorophenyl)-4-(4-(5-methoxypyridin-3-yl)but-3-yn-1-yl)piperazine] | 189% | 1.19 µM |  | 
COc1cncc(C#CC(=O)N2CCN(c3cccc(Cl)c3Cl)CC2)c1 [Compound 72, 1-(4-(2,3-dichlorophenyl)piperazin-1-yl)-3-(5-methoxypyridin-3-yl)prop-2-yn-1-one] | 171% | 3.24 µM |  | 
COc1ccc(/C=C/CN2CCN(c3nc4ccccc4s3)CC2)cc1OC [Compound 73, (E)-2-(4-(3-(3,4-dimethoxyphenyl)allyl)piperazin-1-yl)benzo[d]thiazole] |  | 0.65 µM | 155% | 
COc1ccc(/C=C/C(=O)N2CCN(c3nc4ccccc4s3)CC2)cc1OC [Compound 74, (E)-1-(4-(benzo[d]thiazol-2-yl)piperazin-1-yl)-3-(3,4-dimethoxyphenyl)prop-2-en-1-one] |  | 12.1 µM | 182% | 
Cc1ccc2c(n1)N(CCCCCN1CCN(c3cccc(Cl)c3Cl)CC1)CCO2 [Compound 75, 4-(5-(4-(2,3-dichlorophenyl)piperazin-1-yl)pentyl)-6-methyl-3,4-dihydro-2H-pyrido[3,2-b][1,4]oxazine] | 136% | 0.22 µM |  | 
Cc1ccc2c(n1)N(CCC(=O)NCCN1CCN(c3cc(Cl)ccc3C)CC1)CCO2 [Compound 76, N-(2-(4-(5-chloro-2-methylphenyl)piperazin-1-yl)ethyl)-3-(6-methyl-2,3-dihydro-4H-pyrido[3,2-b][1,4]oxazin-4-yl)propanamide] |  | 3.46 µM | 147% | 
Cc1ccc2c(n1)N(CCCCCN1CCN(c3cc(Cl)ccc3C)CC1)CCO2 [Compound 77, 4-(5-(4-(5-chloro-2-methylphenyl)piperazin-1-yl)pentyl)-6-methyl-3,4-dihydro-2H-pyrido[3,2-b][1,4]oxazine] | 146% |  |  | 
COc1cc2c(cc1OC)N(CCCCN1CCN(c3cccc(C(F)(F)F)c3)CC1)C(=O)C2 [Compound 78, 5,6-dimethoxy-1-(4-(4-(3-(trifluoromethyl)phenyl)piperazin-1-yl)butyl)indol-2-one] | 130% |  |  | 
COc1cc2c(cc1OC)N(CCCCN1CCN(c3cccc(Cl)c3Cl)CC1)C(=O)C2 [Compound 79, 1-(4-(4-(2,3-dichlorophenyl)piperazin-1-yl)butyl)-5,6-dimethoxyindolin-2-one] | 133% |  |  | 
CCOC(=O)c1nc(CNC(=O)CCCN2CCN(c3nc4ccccc4s3)CC2)sc1C [Compound 80, ethyl 2-((4-(4-(benzo[d]thiazol-2-yl)piperazin-1-yl)butanamido)methyl)-5-methylthiazole-4-carboxylate] |  | 2.55 µM | 150% | 
CCOC(=O)c1nc(CNC(=O)CCCN2CCN(c3cccc(Cl)c3Cl)CC2)sc1C [Compound 82, ethyl 2-((4-(4-(2,3-dichlorophenyl)piperazin-1-yl)butanamido)methyl)-5-methylthiazole-4-carboxylate] |  | 2.52 µM | 156% | 

SMILES | Emax | EC50 [1] | Emax [2] | Emax [3]
Cc1ccc(Cl)cc1N1CCN(CCNC(=O)CC2Oc3ccccc3NC2=O)CC1 (stereo not drawn) [Compound 84] |  | 3.86 µM |  | 154.70%
O=C(CC1Oc2ccccc2NC1=O)NCCN1CCN(c2cccc(Cl)c2Cl)CC1 (stereo not drawn) [Compound 85, N-(2-(4-(2,3-dichlorophenyl)piperazin-1-yl)ethyl)-2-(3-oxo-3,4-dihydro-2H-benzo[b][1,4]oxazin-2-yl)acetamide] |  |  | 168% | 
Cc1ccc(Cl)cc1N1CCN(CCNC(=O)CC2Oc3ccccc3NC2=O)CC1 (stereo not drawn) [Compound 91] |  | 25.8 µM |  | 200.91%
CN(CCOCc1cccc(Cl)c1Cl)CCOc1ccc2c(c1)NC(=O)CC2 [Compound 98, 7-(2-((2-((2,3-dichlorobenzyl)oxy)ethyl)(methyl)amino)ethoxy)-3,4-dihydroquinolin-2(1H)-one] |  |  | 139% | 
O=C1CCc2ccc(OCCNCCC3CC3c3cccc(Cl)c3Cl)cc2N1 (stereo not drawn) [Compound 102, 7-(2-((2-(2-(2,3-dichlorophenyl)cyclopropyl)ethyl)amino)ethoxy)-3,4-dihydroquinolin-2(1H)-one] |  | 12.4 µM | 170% | 
O=C1CCc2ccc(OCCN3CCc4cc(Cl)ccc43)cc2N1 [Compound 103, 7-(2-(5-chloroindolin-1-yl)ethoxy)-3,4-dihydroquinolin-2(1H)-one] |  | 17.3 µM | 137% | 
O=C1CCc2cc(OCCCN3CC(=O)Nc4ccc(Cl)cc43)ccc2N1 [Compound 115, 6-chloro-4-(3-((2-oxo-1,2,3,4-tetrahydroquinolin-6-yl)oxy)propyl)-3,4-dihydroquinoxalin-2(1H)-one] |  |  | 159% | 
COc1cc2c(cc1OC)C(CCCCC(=O)NCc1ccc(C(C)C)cc1)C(=O)N2 (stereo not drawn) [Compound 132, 5-(5,6-dimethoxy-2-oxoindolin-3-yl)-N-(4-isopropylbenzyl)pentanamide] |  |  | 120% | 
CN(c1cccc(Cl)c1Cl)[C@@H]1CCN(CCCCOc2ccc3c(c2)NC(=O)CC3)C1 [Compound 133, (R)-7-(4-(3-((2,3-dichlorophenyl)(methyl)amino)pyrrolidin-1-yl)butoxy)-3,4-dihydroquinolin-2(1H)-one] |  | 10.8 µM | 167% | 
COc1ccc(Cn2c(C(=O)N3CCC(CCOc4ccc5c(c4)NC(=O)CC5)CC3)cc3sccc32)cc1 [Compound 134, 7-(2-(1-(4-(4-methoxybenzyl)-4H-thieno[3,2-b]pyrrole-5-carbonyl)piperidin-4-yl)ethoxy)-3,4-dihydroquinolin-2(1H)-one] |  |  | 149% | 
C[C@@H]1C[C@@H](COc2ccc3c(c2)NC(=O)CC3)CN(CC[C@@H](N)c2cccc(Cl)c2Cl)C1 [Compound 135, 7-(((3R,5R)-1-((R)-3-amino-3-(2,3-dichlorophenyl)propyl)-5-methylpiperidin-3-yl)methoxy)-3,4-dihydroquinolin-2(1H)-one] |  |  | 133% | 
O=C1NCCN1CCN1CCC(c2cn(-c3ccc(F)cc3)c3ccc(Cl)cc23)CC1 [Compound 136] |  | 2.79 µM | 137% | 
CC(C)(C)NC(=O)NC(=O)CN1CCC(c2c[nH]c3ccccc23)CC1 [Compound 137] |  | 110 µM | 146% | 
O=C(CN1CCC(c2c[nH]c3ccccc23)CC1)NC(=O)NC1CC1 [Compound 138] |  | 1.01 µM | 180% | 
O=C(CCc1c[nH]c2ccccc12)N1CCN(CC(=O)N2CCCC2)CC1 [Compound 139] |  | 8.09 µM | 191% | 
O=C(CN1CCN(C(=O)CCC2Cc3ccccc3NC2=O)CC1)Nc1ccccc1Cl (stereo not drawn) [Compound 140] |  | 8.75 µM | 203% | 
O=C1CCc2cc(OCC(=O)N3CCCN(Cc4ccc(Cl)cc4)CC3)ccc2N1 [Compound 141] |  |  | 124% | 
Cc1cc2c(cc1S(=O)(=O)N(C)CC(=O)NCc1ccc(F)cc1)OCC(=O)N2 [Compound 142] |  |  | 126% | 

From patent US20260076975A1, “TPK AGONIST AND METHOD FOR USING SAME TO TREAT NEURODEGENERATIVE DISEASES” (SHANGHAI RAISING PHARMACEUTICAL CO., LTD., priority 2022, published 2026)
